According to patent publication US20080249168A1, “Pharmaceutical composition for gout” (priority 2007, published 2008):
Entries after “also recorded” stand apart in the source; their conditions may differ.

Key:
[1] = tested on: hyperuricemia model of Kunmin mouse; test: Influence of l-carnitine on serum uric acid in hyperuricemia model of Kunmin mouse (oteracil potassium as inducer); format: in vivo; settings: for serum uric acid value (X ± S): peritoneal injection, blood one hour after injection of inducer, P < 0.01 vs negative control
Experimental: (§1) Fifty healthy kunmin Mouse (weight of 18-22 grams, male) were randomly divided into 5 groups, which are positive control group, negative control group, and small (250 mg/kg), medium (500 mg/kg) and large (1000 mg/kg) doses of 1-carnitine groups. The solvent for all solutions is 0.5% of sodium carboxymethyl cellulose (CMC—Na), with peritoneal injection in dose of 0.1 ml/10 g for all animals. For […], same dose of 0.5% of CMC—Na solution was injected. One hour after injection of inducer, blood samples were taken from eyeball, stet at room temperature for about one hour, centrifugation at 4000 r.p.m for 10 mins, supernatant was transferred to fresh tube for biochemical test of serum uric acid.
The efficacy of the composition described in the present invention is clearly shown in Example 1, where uricase inhibitor oteracil potassium is used as model inducer to induce hyperuricemia in Kunmin mouse, and administered Levocarnitine to observe novel pharmacological effect on the model.

normal kunmin mice = test: Influence of L-carnitine on serum uric acid level in normal Kunmin mouse; format: in vivo; settings: 300 mg/kg
Experimental: as §1, with “acid. Thirty healthy kunmin mouse (weight of 18-22 grams, male) were randomly divided into 3 groups, which are positive control group, negative control group, and 1-carnitine (300 mg/k) group. Others method was same as example 1.” for “acid.”

C[N+](C)(C)C[C@H](O)CC(=O)[O-] [L-Carnitine, Levocarnitine (L-carnitine)]
serum uric acid value (X ± S) ([1]; 250 mg/kg (small dose)): 140.6 ± 51.55
serum uric acid value (X ± S) ([1]; 500 mg/kg (medium dose)): 130.1 ± 34.8
serum uric acid value (X ± S) ([1]; 1000 mg/kg (large dose)): 131.7 ± 24.79
effect on serum uric acid level (in words) ([1]; dose 250-1000 mg/kg): reduced serum uric acid level of model animal group significantly; also recorded: reduced the uric acid level significantly
effect on uric acid level (in words) (normal kunmin mice): no effect on uric acid level
serum uric acid value (X ± S) (normal kunmin mice; P > 0.05 vs normal positive control group): 76.9 ± 30.77
effect on uric acid level (in words) (normal kunmin mice; listed as 1-carnitine): not affecting uric acid level
